{"source": "patent US8680052B1", "about": "“Methods of treating, reducing the incidence of, and/or preventing ischemic events” (The Medicines Company, priority 2013, dated 2014)", "test_system": "patients with acute coronary syndromes undergoing PCI", "conditions": "for All-cause mortality OR (95% CI) / IDR OR (95% CI) / MI OR (95% CI) / Mortality/MI/IDR OR (95% CI) / Mortality/Q-wave MI/IDR OR (95% CI) / Mortality/Q-wave MI/Stent thrombosis OR (95% CI) / Q-wave MI OR (95% CI) / Stent thrombosis OR (95% CI): Cangrelor vs Clopidogrel; for Angiographic complications (site reported): Abrupt vessel closure / Angiographic complications (site reported): Acute stent thrombosis / Angiographic complications (site reported): Need for urgent CABG / Angiographic complications (site reported): New thrombus or suspected thrombus / Angiographic complications (site reported): Threatened abrupt closure / Angiographic complications (site reported): Unsuccessful procedure: index PCI", "note": "Like-named read-outs stand apart in the source and are kept apart here.", "description": "Patients were eligible for enrollment if they had stable angina, unstable angina, or non-ST-segment elevation (NSTE) MI with obstructive coronary artery disease and were scheduled to undergo PCI.\nThe infusion began within 30 minutes prior to PCI and continued for at least 2 hours or until the conclusion of the index procedure, whichever was longer. At the treating physician's discretion, the infusion could be continued for 4 hours.\nAll patients received aspirin 75-325 mg per local site standards. Adjunctive anticoagulants (unfractionated heparin, low molecular weight heparin, bivalirudin, or fondaparinux) and the procedural use of glycoprotein IIb/IIIa inhibitors were determined by the treating physician.\nThe primary efficacy endpoint was the 48-hour composite of all-cause mortality, MI, or ischemia-driven revascularization. Prespecified secondary efficacy endpoints included the composite of mortality or MI at 48 hours and 30 days; the composite of mortality, MI, or ischemia-driven revascularization at 30 days; the components of the composite endpoints at 48 hours and 30 days; stroke at 48 hours; abrupt closure, threatened abrupt closure, need for urgent coronary artery bypass grafting, or unsuccessful procedure during the index PCI; acute (24 hours) and 48 hours stent thrombosis; and all-cause mortality at 6 months and 1 year.\nRates of MI and ischemia-driven revascularization up to 30 days following the index procedure were assessed. Ischemia-driven revascularization was defined as symptoms of myocardial ischemia leading to urgent (within 24 hours of the last episode of ischemia) revascularization, which must have occurred after the index procedure concluded (i.e., guidewire removal). New electrocardiographic changes, acute pulmonary edema, ventricular arrhythmias, or hemodynamic instability could also constitute evidence of ischemia.\nMI was defined by a new Q wave (duration >0.03 seconds) in two contiguous electrocardiographic leads or elevations in creatine kinase (CK) and CK-MB, including a rise of CK-MB≧3 times the local upper limit or normal and, when biomarkers were elevated prior to PCI, an additional 50% above baseline. One baseline troponin measurement was required for patients undergoing urgent PCI. Measurements of CK-MB were obtained at 2, 10, 17, and 24 hours post-PCI.\nThe primary efficacy analysis was to be determined in the modified intent-to-treat (mITT) population, defined as all randomized patients (excluding STEMI cohort) who received at least one dose of study drug and underwent the index PCI. The safety population consisted of all randomized patients who received any study drug. Patients in the safety analyses were assigned to a treatment arm based on treatment received, not as randomized."}
{"compound": "CSCCNc1nc(SCCC(F)(F)F)nc2c1ncn2[C@@H]1O[C@H](COP(=O)(O)OP(=O)(O)C(Cl)(Cl)P(=O)(O)O)[C@@H](O)[C@H]1O", "note": "[Cangrelor, cangrelor]", "values": [{"measurement": "Q-wave MI", "setting": "30 days, MITT Without STEMI", "value": "7 (0.2) no. (%)"}, {"measurement": "Stent thrombosis", "setting": "30 days, MITT Without STEMI", "value": "20 (0.5) no. (%)"}, {"measurement": "All-cause mortality OR (95% CI)", "setting": "30 days, MITT Without STEMI", "value": "1.177 (0.704, 1.967)"}, {"measurement": "IDR OR (95% CI)", "setting": "30 days, MITT Without STEMI", "value": "0.837 (0.559, 1.254)"}, {"measurement": "MI OR (95% CI)", "setting": "30 days, MITT Without STEMI", "value": "1.072 (0.905, 1.272)"}, {"measurement": "Mortality/MI/IDR OR (95% CI)", "setting": "30 days, MITT Without STEMI", "value": "1.044 (0.891, 1.224)"}, {"measurement": "Mortality/Q-wave MI/IDR OR (95% CI)", "setting": "30 days, MITT Without STEMI", "value": "0.930 (0.679, 1.273)"}, {"measurement": "Mortality/Q-wave MI/Stent thrombosis OR (95% CI)", "setting": "30 days, MITT Without STEMI", "value": "1.030 (0.702, 1.511)"}, {"measurement": "Q-wave MI OR (95% CI)", "setting": "30 days, MITT Without STEMI", "value": "0.462 (0.188, 1.134)"}, {"measurement": "Stent thrombosis OR (95% CI)", "setting": "30 days, MITT Without STEMI", "value": "0.991 (0.533, 1.846)"}, {"measurement": "All-cause mortality OR (95% CI)", "setting": "30 days, MITT", "value": "1.046 (0.670, 1.635)"}, {"measurement": "IDR OR (95% CI)", "setting": "30 days, MITT", "value": "0.902 (0.634, 1.283)"}, {"measurement": "MI OR (95% CI)", "setting": "30 days, MITT", "value": "1.078 (0.914, 1.271)"}, {"measurement": "Mortality/MI/IDR OR (95% CI)", "setting": "30 days, MITT", "value": "1.042 (0.895, 1.211)"}, {"measurement": "Mortality/Q-wave MI/IDR OR (95% CI)", "setting": "30 days, MITT", "value": "0.927 (0.703, 1.222)"}, {"measurement": "Mortality/Q-wave MI/Stent thrombosis OR (95% CI)", "setting": "30 days, MITT", "value": "0.924 (0.663, 1.290)"}, {"measurement": "Q-wave MI OR (95% CI)", "setting": "30 days, MITT", "value": "0.595 (0.260, 1.362)"}, {"measurement": "Stent thrombosis OR (95% CI)", "setting": "30 days, MITT", "value": "0.894 (0.530, 1.506)"}, {"measurement": "All-cause mortality", "setting": "30 days, Safety population", "value": "40 (0.9) no. (%)"}, {"measurement": "IDR", "setting": "30 days, Safety population", "value": "60 (1.4) no. (%)"}, {"measurement": "MI", "setting": "30 days, Safety population", "value": "318 (7.4) no. (%)"}, {"measurement": "Mortality/MI/IDR", "setting": "30 days, Safety population", "value": "379 (8.8) no. (%)"}, {"measurement": "Mortality/Q-wave MI/IDR", "setting": "30 days, Safety population", "value": "100 (2.3) no. (%)"}, {"measurement": "Mortality/Q-wave MI/Stent thrombosis", "setting": "30 days, Safety population", "value": "68 (1.6) no. (%)"}, {"measurement": "Q-wave MI", "setting": "30 days, Safety population", "value": "9 (0.2) no. (%)"}, {"measurement": "Stent thrombosis", "setting": "30 days, Safety population", "value": "27 (0.6) no. (%)"}, {"measurement": "All-cause mortality OR (95% CI)", "setting": "30 days, Safety population", "value": "0.974 (0.629, 1.508)"}, {"measurement": "IDR OR (95% CI)", "setting": "30 days, Safety population", "value": "0.893 (0.628, 1.268)"}, {"measurement": "MI OR (95% CI)", "setting": "30 days, Safety population", "value": "1.090 (0.925, 1.285)"}, {"measurement": "Mortality/MI/IDR OR (95% CI)", "setting": "30 days, Safety population", "value": "1.040 (0.895, 1.209)"}, {"measurement": "Mortality/Q-wave MI/IDR OR (95% CI)", "setting": "30 days, Safety population", "value": "0.897 (0.682, 1.179)"}, {"measurement": "Mortality/Q-wave MI/Stent thrombosis OR (95% CI)", "setting": "30 days, Safety population", "value": "0.892 (0.641, 1.240)"}, {"measurement": "Q-wave MI OR (95% CI)", "setting": "30 days, Safety population", "value": "0.598 (0.262, 1.368)"}, {"measurement": "Stent thrombosis OR (95% CI)", "setting": "30 days, Safety population", "value": "0.898 (0.533, 1.513)"}, {"measurement": "Angiographic complications (site reported): Abrupt vessel closure", "setting": "ITT", "value": "24 (0.6)"}, {"measurement": "Angiographic complications (site reported): Acute stent thrombosis", "setting": "ITT", "value": "2 (0.0)"}, {"measurement": "Angiographic complications (site reported): Need for urgent CABG", "setting": "ITT", "value": "10 (0.2)"}, {"measurement": "Angiographic complications (site reported): New thrombus or suspected thrombus", "setting": "ITT", "value": "17 (0.4)"}, {"measurement": "Angiographic complications (site reported): Threatened abrupt closure", "setting": "ITT", "value": "13 (0.3)"}, {"measurement": "Angiographic complications (site reported): Unsuccessful procedure", "setting": "ITT", "value": "90 (2.1)"}, {"measurement": "Angiographic complications (site reported): Abrupt vessel closure", "setting": "ITT With STEMI", "value": "4 (0.9)"}, {"measurement": "Angiographic complications (site reported): Acute stent thrombosis", "setting": "ITT With STEMI", "value": "0 (0.0)"}, {"measurement": "Angiographic complications (site reported): Need for urgent CABG", "setting": "ITT With STEMI", "value": "2 (0.4)"}, {"measurement": "Angiographic complications (site reported): New thrombus or suspected thrombus", "setting": "ITT With STEMI", "value": "1 (0.2)"}, {"measurement": "Angiographic complications (site reported): Threatened abrupt closure", "setting": "ITT With STEMI", "value": "4 (0.9)"}, {"measurement": "Angiographic complications (site reported): Unsuccessful procedure", "setting": "ITT With STEMI", "value": "9 (2.0)"}, {"measurement": "Angiographic complications (site reported): Abrupt vessel closure", "setting": "ITT Without STEMI", "value": "20 (0.5)"}, {"measurement": "Angiographic complications (site reported): Acute stent thrombosis", "setting": "ITT Without STEMI", "value": "2 (0.1)"}, {"measurement": "Angiographic complications (site reported): Need for urgent CABG", "setting": "ITT Without STEMI", "value": "8 (0.2)"}, {"measurement": "Angiographic complications (site reported): New thrombus or suspected thrombus", "setting": "ITT Without STEMI", "value": "16 (0.4)"}, {"measurement": "Angiographic complications (site reported): Threatened abrupt closure", "setting": "ITT Without STEMI", "value": "9 (0.2)"}, {"measurement": "Angiographic complications (site reported): Unsuccessful procedure", "setting": "ITT Without STEMI", "value": "81 (2.1)"}, {"measurement": "Angiographic complications (site reported): Abrupt vessel closure", "setting": "MITT", "value": "24 (0.6)"}, {"measurement": "Angiographic complications (site reported): Acute stent thrombosis", "setting": "MITT", "value": "2 (0.0)"}, {"measurement": "Angiographic complications (site reported): Need for urgent CABG", "setting": "MITT", "value": "8 (0.2)"}, {"measurement": "Angiographic complications (site reported): New thrombus or suspected thrombus", "setting": "MITT", "value": "17 (0.4)"}, {"measurement": "Angiographic complications (site reported): Threatened abrupt closure", "setting": "MITT", "value": "13 (0.3)"}, {"measurement": "Angiographic complications (site reported): Unsuccessful procedure", "setting": "MITT", "value": "90 (2.1)"}, {"measurement": "Angiographic complications (site reported): Abrupt vessel closure", "setting": "MITT NSTEMI", "value": "20 (0.5)"}, {"measurement": "Angiographic complications (site reported): Acute stent thrombosis", "setting": "MITT NSTEMI", "value": "2 (0.1)"}, {"measurement": "Angiographic complications (site reported): Need for urgent CABG", "setting": "MITT NSTEMI", "value": "7 (0.2)"}, {"measurement": "Angiographic complications (site reported): New thrombus or suspected thrombus", "setting": "MITT NSTEMI", "value": "16 (0.4)"}, {"measurement": "Angiographic complications (site reported): Threatened abrupt closure", "setting": "MITT NSTEMI", "value": "9 (0.2)"}, {"measurement": "Angiographic complications (site reported): Unsuccessful procedure", "setting": "MITT NSTEMI", "value": "81 (2.1)"}, {"measurement": "Angiographic complications (site reported): Abrupt vessel closure", "setting": "Safety population", "value": "24 (0.6)"}, {"measurement": "Angiographic complications (site reported): Acute stent thrombosis", "setting": "Safety population", "value": "2 (0.0)"}, {"measurement": "Angiographic complications (site reported): Need for urgent CABG", "setting": "Safety population", "value": "8 (0.2)"}, {"measurement": "Angiographic complications (site reported): New thrombus or suspected thrombus", "setting": "Safety population", "value": "17 (0.4)"}, {"measurement": "Angiographic complications (site reported): Threatened abrupt closure", "setting": "Safety population", "value": "13 (0.3)"}, {"measurement": "Angiographic complications (site reported): Unsuccessful procedure", "setting": "Safety population", "value": "90 (2.1)"}]}
